{"source": "patent US12071434B2", "about": "“Heterocyclic compound” (Takeda Pharmaceutical Company Limited, priority 2018, dated 2024)", "target": "T1, human orexin type 2 receptor (Homo sapiens, UniProt O43614)", "T1 construct": "expressed in transfected cells", "T1 sequence (O43614 1-444)": "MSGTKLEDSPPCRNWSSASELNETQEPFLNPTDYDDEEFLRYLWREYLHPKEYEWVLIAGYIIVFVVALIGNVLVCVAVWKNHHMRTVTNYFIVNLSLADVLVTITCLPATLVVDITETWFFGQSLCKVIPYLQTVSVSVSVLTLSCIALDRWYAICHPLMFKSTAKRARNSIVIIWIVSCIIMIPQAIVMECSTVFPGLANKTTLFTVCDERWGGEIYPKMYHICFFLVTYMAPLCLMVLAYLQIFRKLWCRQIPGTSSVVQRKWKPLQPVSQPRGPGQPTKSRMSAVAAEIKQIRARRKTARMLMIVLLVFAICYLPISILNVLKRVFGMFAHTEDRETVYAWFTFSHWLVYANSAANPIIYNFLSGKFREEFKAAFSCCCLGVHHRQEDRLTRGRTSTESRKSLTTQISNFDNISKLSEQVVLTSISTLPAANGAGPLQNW", "experiment": "Measurement of orexin type 2 receptor agonist activity (calcium fluorescence, Fluo-4 AM, FDSS) in CHO cells forcibly expressing human OX2 receptor", "assay_type": "cell-based", "conditions": "test compound 3 μM, DMSO = 0%, orexin A (human) 10 nM = 100%", "from_the_text": "To obtain a cell clone stably expressing human orexin type 2 receptor, human orexin type 2 receptor cDNA was inserted into pcDNA3.1(+) plasmid vector (Invitrogen), and a plasmid DNA for expression of human orexin type 2 receptor (pcDNA3.1(+)/hOX2R) was cloned. The plasmid DNA was introduced into CHO-dhfr cell by an electroporation method, and human orexin type 2 receptor expressing clone cells were obtained by limiting dilution method by using G418 drug resistance as a selection marker.\nCHO cells forcibly expressing human OX2 receptor were seeded in each well of 384 well black transparent bottom plate (BD Falcon) at 7,500 cells/well, and cultured for one day in a 5% CO2 incubator at 37° C. After removal of the medium in the cell plate, assay buffer A containing a calcium indicator (HBSS (Thermo Fisher Scientific), 20 mM HEPES (Thermo Fisher Scientific), 0.1% BSA (Sigma-Aldrich), 2.5 μg/mL Fluo-4 AM (DOJINDO Chemical), 0.08% Pluronic F127 (DOJINDO Chemical), 1.25 mM probenecid (DOJINDO Chemical)) was added at 30 μL/well. The plate was stood for 30 min in a 5% CO2 incubator at 37° C., and further stood at room temperature for 30 min. A test compound prepared by diluting with assay buffer B (HBSS, 20 mM HEPES, 0.1% BSA) was added at 10 μL/well, and the fluorescence value was measured by FDSSpCELL (Hamamatsu Photonics K.K.) every one sec for 1 min, and thereafter every two sec for 1 min 40 sec. The activity (%) of the test compound was calculated assuming that variation in the fluorescence value when DMSO was added instead of the test compound was 0%, and variation in the fluorescence value when orexin A (human) (PEPTIDE INSTITUTE, INC.) was added at the final concentration of 10 nM was 100%.", "data": [{"smiles": "Cc1cnc2n(c1=O)[C@@H](Cc1cccc(-c3ccccc3)c1)[C@@H](NS(C)(=O)=O)CC2", "note": "(racemic) [Example 94, rac-N-{(6S,7S)-6-[([1,1′-biphenyl]-3-yl)methyl]-3-methyl-4-oxo-6,7,8,9-tetrahydro-4H-pyrido[1,2-a]pyrimidin-7-yl}methanesulfonamide]", "values": [{"measurement": "0X2R agonist activity (3 μM, %)", "value": 89, "unit": "%"}]}, {"smiles": "Cc1nn(C)c(=O)c2c1CC[C@H](NS(C)(=O)=O)[C@@H]2Cc1cccc(-c2ccccc2)c1", "note": "(racemic) [Example 96, rac-N-{(5R,6S)-5-[([1,1′-biphenyl]-3-yl)methyl]-1,3-dimethyl-4-oxo-3,4,5,6,7,8-hexahydrophthalazin-6-yl}methanesulfonamide]", "values": [{"measurement": "0X2R agonist activity (3 μM, %)", "value": 71, "unit": "%"}]}, {"smiles": "CCS(=O)(=O)NC1CCc2c(C)nn(C)c(=O)c2C1Cc1cccc(-c2ccccc2)c1", "note": "(racemic) [Example 97, rac-N-{(5R,6S)-5-[([1,1′-biphenyl]-3-yl)methyl]-1,3-dimethyl-4-oxo-3,4,5,6,7,8-hexahydrophthlalazin-6-yl}ethanesulfonamide]", "values": [{"measurement": "0X2R agonist activity (3 μM, %)", "value": 82, "unit": "%"}]}, {"smiles": "CCS(=O)(=O)N[C@H]1CCc2ncn(C(C)C)c(=O)c2[C@H]1Cc1cccc(-c2cc(C)ccn2)c1", "note": "(racemic) [Example 98, rac-N-[(5R,6S)-5-{[3-(4-methylpyridin-2-yl)phenyl]methyl}-4-oxo-3-(propan-2-yl)-3,4,5,6,7,8-hexahydroquinazolin-6-yl]ethanesulfonamide]", "values": [{"measurement": "0X2R agonist activity (3 μM, %)", "value": 107, "unit": "%"}]}, {"smiles": "CCc1ccc2n(c1=O)C(Cc1cccc(-c3cc(F)cc(F)c3)c1)C(NS(C)(=O)=O)CC2", "note": "(racemic) [Example 101, rac-N-{(3S,4S)-4-[(3′,5′-difluoro[1,1′-biphenyl]-3-yl)methyl]-7-ethyl-6-oxo-1,3,4,6-tetrahydro-2H-quinozilin-3-yl}methanesulfonamide]", "values": [{"measurement": "0X2R agonist activity (3 μM, %)", "value": 98, "unit": "%"}]}, {"smiles": "CCS(=O)(=O)N[C@H]1CCc2ncn(C(C)C)c(=O)c2[C@H]1Cc1cccc(-c2cc(C)cc(C)n2)c1", "note": "(racemic) [Example 102, rac-N-[(5R,6S)-5-{[3-(4,6-dimethylpyridin-2-yl)phenyl]methyl}-4-oxo-3-(propan-2-yl)-3,4,5,6,7,8-hexahydroquinazolin-6-yl]ethanesulfonamide]", "values": [{"measurement": "0X2R agonist activity (3 μM, %)", "value": 100, "unit": "%"}]}, {"smiles": "CS(=O)(=O)N[C@H]1CCc2ncn(CC3CC3)c(=O)c2[C@H]1Cc1cccc(-c2ccccc2)c1", "note": "(racemic) [Example 103, rac-N-[(5R,6S)-5-[([1,1′-biphenyl]-3-yl)methyl]-3-(cyclopropylmethyl)-4-oxo-3,4,5,6,7,8-hexahydroquinazolin-6-yl]methanesulfonamide]", "values": [{"measurement": "0X2R agonist activity (3 μM, %)", "value": 79, "unit": "%"}]}, {"smiles": "CCc1ccc2n(c1=O)[C@@H](Cc1cccc(-c3ccccc3)c1F)[C@@H](NS(C)(=O)=O)CC2", "note": "(racemic) [Example 104, rac-N-{(3S,4S)-7-ethyl-4-[(2-fluoro[1,1′-biphenyl]-3-yl)methyl]-6-oxo-1,3,4,6-tetrahydro-2H-quinolizin-3-yl}methanesulfonamide]", "values": [{"measurement": "0X2R agonist activity (3 μM, %)", "value": 89, "unit": "%"}]}, {"smiles": "Cc1cccc(-c2cccc(C[C@@H]3c4c(ncn(C(C)C)c4=O)CC[C@@H]3NS(C)(=O)=O)c2)c1", "note": "(racemic) [Example 106, rac-N-[(5R,6S)-5-[(3′-methyl[1,1′-biphenyl]-3-yl)methyl]-4-oxo-3-(propan-2-yl)-3,4,5,6,7,8-hexahydroquinazolin-6-yl]methanesulfonamide]", "values": [{"measurement": "0X2R agonist activity (3 μM, %)", "value": 103, "unit": "%"}]}, {"smiles": "Cc1cccc(-c2cccc(C[C@@H]3c4c(ncn(C(C)C)c4=O)CC[C@@H]3NS(C)(=O)=O)c2)c1F", "note": "(racemic) [Example 108, rac-N-[(5R,6S)-5-[(2′-fluoro-3′-methyl[1,1′-biphenyl]-3-yl)methyl]-4-oxo-3-(propan-2-yl)-3,4,5,6,7,8-hexahydroquinazolin-6-yl]methanesulfonamide]", "values": [{"measurement": "0X2R agonist activity (3 μM, %)", "value": 100, "unit": "%"}]}, {"smiles": "CC(C)n1cnc2c(c1=O)[C@@H](Cc1cccc(-c3ccn(C)n3)c1)[C@@H](NS(C)(=O)=O)CC2", "note": "(racemic) [Example 117, rac-N-[(5R,6S)-5-{[3-(1-methyl-1H-pyrazol-3-yl)phenyl]-methyl}-4-oxo-3-(propan-2-yl)-3,4,5,6,7,8-hexahydroquinazolin-6-yl]methanesulfonamide]", "values": [{"measurement": "0X2R agonist activity (3 μM, %)", "value": 97, "unit": "%"}]}, {"smiles": "CCn1ccc2c(c1=O)[C@@H](Cc1cccc(-c3ccccc3F)c1)[C@@H](NS(C)(=O)=O)CC2", "note": "(racemic) [Example 119, rac-N-{(7S,8R)-2-ethyl-8-[(2′-fluoro[1,1′-biphenyl]-3-yl)methyl]-1-oxo-1,2,5,6,7,8-hexahydroisoquinolin-7-yl}methanesulfonamide]", "values": [{"measurement": "0X2R agonist activity (3 μM, %)", "value": 105, "unit": "%"}]}, {"smiles": "CCn1ccc2c(c1=O)[C@@H](Cc1cccc(-c3cccc(C)c3F)c1)[C@@H](NS(C)(=O)=O)CC2", "note": "(racemic) [Example 120, rac-N-{(7S,8R)-2-ethyl-8-[(2′-fluoro-3′-methyl[1,1′-biphenyl]-3-yl)methyl]-1-oxo-1,2,5,6,7,8-hexahydroisoquinolin-7-yl}methanesulfonamide]", "values": [{"measurement": "0X2R agonist activity (3 μM, %)", "value": 98, "unit": "%"}]}, {"smiles": "CCn1ccc2c(c1=O)[C@@H](Cc1cccc(-c3cccc(F)c3F)c1)[C@@H](NS(C)(=O)=O)CC2", "note": "(racemic) [Example 124, rac-N-{(7S,8R)-8-[(2′,3′-difluoro[1,1′-biphenyl]-3-yl)methyl]-2-ethyl-1-oxo-1,2,5,6,7,8-hexahydroisoquinolin-7-yl}methanesulfonamide]", "values": [{"measurement": "0X2R agonist activity (3 μM, %)", "value": 105, "unit": "%"}]}, {"smiles": "CCn1ccc2c(c1=O)[C@@H](Cc1cccc(-c3cccc4c3OCC4)c1)[C@@H](NS(C)(=O)=O)CC2", "note": "(racemic) [Example 126, rac-N-[(7S,8R)-8-{[3-(2,3-dihydro-1-benzofuran-7-yl)phenyl]methyl}-2-ethyl-1-oxo-1,2,5,6,7,8-hexahydroisoquinolin-7-yl]methanesulfonamide]", "values": [{"measurement": "0X2R agonist activity (3 μM, %)", "value": 103, "unit": "%"}]}, {"smiles": "CCn1ccc2c(c1=O)[C@@H](Cc1cccc(-c3cc(F)cc(C)c3F)c1)[C@@H](NS(C)(=O)=O)CC2", "note": "(racemic) [Example 127, rac-N-{(7S,8R)-8-[(2′,5′-difluoro-3′-methyl[1,1′-biphenyl]-3-yl)methyl]-2-ethyl-1-oxo-1,2,5,6,7,8-hexahydroisoquinolin-7-yl}methanesulfonamide]", "values": [{"measurement": "0X2R agonist activity (3 μM, %)", "value": 105, "unit": "%"}]}, {"smiles": "CCn1ccc2c(c1=O)[C@@H](Cc1cccc(-c3cccn(C)c3=O)c1)[C@@H](NS(C)(=O)=O)CC2", "note": "(racemic) [Example 129, rac-N-[(7S,8R)-2-ethyl-8-{[3-(1-methyl-2-oxo-1,2-dihydropyridin-3-yl)phenyl]methyl}-1-oxo-1,2,5,6,7,8-hexahydroisoquinolin-7-yl]methanesulfonamide]", "values": [{"measurement": "0X2R agonist activity (3 μM, %)", "value": 98, "unit": "%"}]}, {"smiles": "CCc1ccc2n(c1=O)[C@@H](Cc1cccc(-c3cc(F)cc(F)c3)c1F)[C@@H](NS(C)(=O)=O)CC2", "note": "(racemic) [Example 132, rac-N-{[3S,4S)-7-ethyl-6-oxo-4-[(2,3′,5′-trifluoro[1,1′-biphenyl]-3-yl)methyl]-1,3,4,6-tetrahydro-2H-quinolizin-3-yl}methanesulfonamide]", "values": [{"measurement": "0X2R agonist activity (3 μM, %)", "value": 104, "unit": "%"}]}, {"smiles": "CC(C)n1cnc2c(c1=O)[C@@H](Cc1ccccc1Oc1ccccc1)[C@@H](NS(C)(=O)=O)CC2", "note": "(racemic) [Example 133, rac-N-[(5R,6S)-4-oxo-5-[(2-phenoxyphenyl)methyl]-3-(propan-2-yl)-3,4,5,6,7,8-hexahydroquinazolin-6-yl]methanesulfonamide]", "values": [{"measurement": "0X2R agonist activity (3 μM, %)", "value": 72, "unit": "%"}]}, {"smiles": "CC(C)n1cnc2c(c1=O)[C@@H](Cc1cccc(-c3ccccc3)c1)[C@@H](NS(=O)(=O)C1CC1)CC2", "note": "(racemic) [Example 134, rac-N-[(5R,6S)-5-[([1,1′-biphenyl]-3-yl)methyl]-4-oxo-3-(propan-2-yl)-3,4,5,6,7,8-hexahydroquinazolin-6-yl]cyclopropanesulfonamide]", "values": [{"measurement": "0X2R agonist activity (3 μM, %)", "value": 111, "unit": "%"}]}, {"smiles": "CCc1cccc(C[C@H]2[C@@H](NS(C)(=O)=O)CCc3ccc(CC)c(=O)n32)c1", "note": "(racemic) [Example 135, rac-N-{(3S,4S)-7-ethyl-4-[(3-ethylphenyl)methyl]-6-oxo-1,3,4,6-tetrahydro-2H-quinolizin-3-yl}methanesulfonamide]", "values": [{"measurement": "0X2R agonist activity (3 μM, %)", "value": 90, "unit": "%"}]}]}
